Data reported in patent US11248010B2, “Compounds, compositions, and methods for modulating CFTR” (Proteostasis Therapeutics, Inc., priority 2016, dated 2022).

Each compound was assayed against T1, ΔF508-CFTR (Homo sapiens, UniProt P13569, DEL508-508) (assay: Ussing measurements (CFTR activity assay)). Settings: compound at 1 uM; activity relative to a corrector (VX-809 (3 uM)); primary lung epithelial cells (hBEs) homozygous for ΔF508; CFTRinh-172-inhibitable short-circuit current.
T1 construct: primary lung epithelial cells (hBEs) homozygous for the Cystic Fibrosis-causing ΔF508 mutation are differentiated; endogenous in cells; host or cells: primary human bronchial epithelial cells (hBEs) homozygous for ΔF508, differentiated at an air-liquid interface
T1 sequence (P13569 with tags, fused parts or gaps DEL508-508): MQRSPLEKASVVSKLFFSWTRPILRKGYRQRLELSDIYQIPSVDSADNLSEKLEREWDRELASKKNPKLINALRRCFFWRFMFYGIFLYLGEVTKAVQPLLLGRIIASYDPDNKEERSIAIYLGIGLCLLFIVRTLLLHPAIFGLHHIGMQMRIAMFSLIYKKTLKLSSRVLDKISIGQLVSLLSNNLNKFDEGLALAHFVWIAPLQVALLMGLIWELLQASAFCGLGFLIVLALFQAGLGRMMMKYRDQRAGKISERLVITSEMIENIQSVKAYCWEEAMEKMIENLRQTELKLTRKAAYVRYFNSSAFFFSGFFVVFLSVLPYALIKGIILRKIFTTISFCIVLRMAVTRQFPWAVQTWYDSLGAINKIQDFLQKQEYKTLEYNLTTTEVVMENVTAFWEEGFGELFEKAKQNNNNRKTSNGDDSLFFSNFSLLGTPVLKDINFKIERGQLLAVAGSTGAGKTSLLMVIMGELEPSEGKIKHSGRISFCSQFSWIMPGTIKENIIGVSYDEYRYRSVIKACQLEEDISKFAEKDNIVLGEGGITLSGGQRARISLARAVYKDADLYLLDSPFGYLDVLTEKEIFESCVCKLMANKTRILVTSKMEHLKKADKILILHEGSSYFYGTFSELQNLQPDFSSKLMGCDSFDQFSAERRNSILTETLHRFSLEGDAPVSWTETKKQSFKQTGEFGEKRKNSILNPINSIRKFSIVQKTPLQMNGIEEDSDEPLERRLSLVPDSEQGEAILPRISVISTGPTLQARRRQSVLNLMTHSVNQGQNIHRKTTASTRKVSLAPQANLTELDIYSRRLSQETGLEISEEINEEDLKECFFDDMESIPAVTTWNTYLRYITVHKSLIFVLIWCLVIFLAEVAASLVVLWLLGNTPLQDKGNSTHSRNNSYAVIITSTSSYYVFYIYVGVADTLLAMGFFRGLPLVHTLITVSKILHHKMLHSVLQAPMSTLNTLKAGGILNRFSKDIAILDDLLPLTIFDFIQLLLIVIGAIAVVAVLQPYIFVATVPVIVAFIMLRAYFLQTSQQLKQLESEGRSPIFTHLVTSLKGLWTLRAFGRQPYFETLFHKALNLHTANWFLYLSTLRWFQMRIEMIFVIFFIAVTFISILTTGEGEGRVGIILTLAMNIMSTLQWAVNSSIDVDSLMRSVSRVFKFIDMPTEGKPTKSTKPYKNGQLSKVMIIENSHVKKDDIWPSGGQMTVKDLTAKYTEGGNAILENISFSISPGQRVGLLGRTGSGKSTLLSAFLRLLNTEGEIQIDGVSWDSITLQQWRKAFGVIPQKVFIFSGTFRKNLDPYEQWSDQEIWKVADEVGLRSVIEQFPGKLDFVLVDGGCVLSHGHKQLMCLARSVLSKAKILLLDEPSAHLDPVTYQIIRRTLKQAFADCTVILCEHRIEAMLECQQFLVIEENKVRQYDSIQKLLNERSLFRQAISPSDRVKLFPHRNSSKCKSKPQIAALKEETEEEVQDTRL
Format: cell-based
Description: As discussed above, Ussing measurements are used to measure CFTR activity. In this method, primary lung epithelial cells (hBEs) homozygous for the Cystic Fibrosis-causing ΔF508 mutation are differentiated for a minimum of 4 weeks in an air-liquid interface on SnapWell filter plates prior to the Ussing measurements. Cells are apically mucus-washed for 30 minutes prior to treatment with compounds. The basolateral media is removed and replaced with media containing the compound of interest diluted to its final concentration from DMSO stocks. Treated cells are incubated at 37° C. and 5% CO2 for 24 hours. At the end of the treatment period, the cells on filters are transferred to the Ussing chamber and equilibrated for 30 minutes. The short-circuit current is measured in voltage clamp-mode (Vhold=0 mV), and the entire assay is conducted at a temperature of 36° C.-36.5° C. Once the voltages are stabilized, the chambers are clamped, and data is recorded by pulse readings every 5 seconds. Following baseline current stabilization, the following additions can be applied and the changes in current and resistance of the cells can be monitored:
1. Benzamil to the apical chamber to inhibit ENaC sodium channel.
2. Forskolin to both chambers to activate ΔF508-CFTR by phosphorylation.
3. VX-770 to the apical chamber to potentiate ΔF508-CFTR channel opening.
4. CFTRinh-172 to the apical chamber to inhibit ΔF508-CFTR Cl— conductance.
The inhibitable current (that current that is blocked by CFTRinh-172) is measured as the specific activity of the ΔF508-CFTR channel, and increases in response to compound in this activity over that observed in vehicle-treated samples are identified as the correction of ΔF508-CFTR function imparted by the compound tested.
(+ indicates activity <200% of a corrector (VX-809 (3 uM)) with compound at 1 uM; ++ indicates activity >200% of a corrector (VX-809 (3 uM)) with compound at 1 uM.
For `CC[Si](C)(CC)c1cc(C(C)(C)C)c(NC(=O)c2c[nH]c3ccccc3c2=O)cc1O` [Compound 3, N-[2-tert-Butyl-4-[diethyl(methyl)silyl]-5-hydroxyphenyl]-4-oxo-1,4-dihydroquinoline-3-carboxamide], the Activity was “++ (activity >200% of a corrector (VX-809 (3 uM)) with compound at 1 uM)”.
For `CC(C)(C)c1cc([Si](C)(C)C(C)(C)C)c(O)cc1NC(=O)c1c[nH]c2ccccc2c1=O` [Compound 5, N-(2-tert-Butyl-4-(tert-butyldimethylsilyl)-5-hydroxyphenyl)-4-oxo-1,4-dihydroquinoline-3-carboxamide], the Activity was “++ (activity >200% of a corrector (VX-809 (3 uM)) with compound at 1 uM)”.
For `CC(C)(C)c1cc([Si](C)(C)C)c(NC(=O)c2c[nH]c3ccccc3c2=O)cc1O` [Compound 8, N-[4-tert-Butyl-5-hydroxy-2-(trimethylsilyl)phenyl]-4-oxo-1,4-dihydroquinoline-3-carboxamide], the Activity was “++ (activity >200% of a corrector (VX-809 (3 uM)) with compound at 1 uM)”.
In the case of `C[Si](C)(C)c1cc([Si](C)(C)C)c(NC(=O)c2c[nH]c3ccccc3c2=O)cc1O` [Compound 11, N-(5-Hydroxy-2,4-bis(trimethylsilyl)phenyl)-4-oxo-1,4-dihydroquinoline-3-carboxamide], the Activity was “++ (activity >200% of a corrector (VX-809 (3 uM)) with compound at 1 uM)”.
`C[Si](C)(C)c1cc(C(F)(F)F)c(NC(=O)c2c[nH]c3ccccc3c2=O)cc1O` [Compound 19, N-(5-Hydroxy-2-(trifluoromethyl)-4-(trimethylsilyl)phenyl)-4-oxo-1,4-dihydroquinoline-3-carboxamide] was tested, and the Activity was “++ (activity >200% of a corrector (VX-809 (3 uM)) with compound at 1 uM)”.
With `CC(C)[Si](C)(C)c1cc(C(C)(C)C)c(NC(=O)c2c[nH]c3ccccc3c2=O)cc1O` [Compound 6, N-[2-tert-Butyl-4-[dimethyl(propan-2-yl)silyl]-5-hydroxyphenyl]-4-oxo-1,4-dihydroquinoline-3-carboxamide] the Activity was “++ (activity >200% of a corrector (VX-809 (3 uM)) with compound at 1 uM)”.
`C[Si](C)(C)c1cc(F)c(NC(=O)c2c[nH]c3ccccc3c2=O)cc1O` [Compound 18, N-(2-Fluoro-5-hydroxy-4-(trimethylsilyl)phenyl)-4-oxo-1,4-dihydroquinoline-3-carboxamide] was tested, and the Activity was “++ (activity >200% of a corrector (VX-809 (3 uM)) with compound at 1 uM)”.
With `CC(C)(C)c1cc([Si](C)(C)C(C)(C)C)c(NC(=O)c2c[nH]c3ccccc3c2=O)cc1O` [Compound 10, N-(4-(tert-Butyl)-2-(tert-butyldimethylsilyl)-5-hydroxyphenyl)-4-oxo-1,4-dihydroquinoline-3-carboxamide] the Activity was “++ (activity >200% of a corrector (VX-809 (3 uM)) with compound at 1 uM)”.
`[2H]C([2H])([2H])[Si](c1cc(C(C)(C)C)c(NC(=O)c2c[nH]c3ccccc3c2=O)cc1O)(C([2H])([2H])[2H])C([2H])([2H])[2H]` [Compound 12, N-(2-(tert-Butyl)-5-hydroxy-4-(tris(methyl-d3)silyl)phenyl)-4-oxo-1,4-dihydroquinoline-3-carboxamide] was tested, and the Activity was “++ (activity >200% of a corrector (VX-809 (3 uM)) with compound at 1 uM)”.
`CC[Si](CC)(CC)c1cc(C(C)(C)C)c(NC(=O)c2c[nH]c3ccccc3c2=O)cc1O` [Compound 4, N-(2-(tert-Butyl)-5-hydroxy-4-(triethylsilyl)phenyl)-4-oxo-1,4-dihydroquinoline-3-carboxamide] was tested, and the Activity was “+ (activity <200% of a corrector (VX-809 (3 uM)) with compound at 1 uM)”.
In the case of `CC(C)(C)c1cc([Si](C)(C)C)c(O)cc1NC(=O)c1c[nH]c2ccccc2c1=O` [Compound 1, N-[2-tert-Butyl-5-hydroxy-4-(trimethylsilyl)phenyl]-4-oxo-1,4-dihydroquinoline-3-carboxamide], the Activity was “++ (activity >200% of a corrector (VX-809 (3 uM)) with compound at 1 uM)”.
`CC(C)(C)c1cc([Si](C)(C)c2ccccc2)c(O)cc1NC(=O)c1c[nH]c2ccccc2c1=O` [Compound 7, N-(2-(tert-Butyl)-4-(dimethyl(phenyl)silyl)-5-hydroxyphenyl)-4-oxo-1,4-dihydroquinoline-3-carboxamide] was tested, and the Activity was “++ (activity >200% of a corrector (VX-809 (3 uM)) with compound at 1 uM)”.
With `CC[Si](C)(C)c1cc(C(C)(C)C)c(NC(=O)c2c[nH]c3ccccc3c2=O)cc1O` [Compound 2, N-[2-tert-Butyl-4-(ethyldimethylsilyl)-5-hydroxyphenyl]-4-oxo-1,4-dihydroquinoline-3-carboxamide] the Activity was “++ (activity >200% of a corrector (VX-809 (3 uM)) with compound at 1 uM)”.
`C[Si](C)(C)c1ccc(NC(=O)c2c[nH]c3ccccc3c2=O)cc1O` [Compound 17, N-(3-Hydroxy-4-(trimethylsilyl)phenyl)-4-oxo-1,4-dihydroquinoline-3-carboxamide] was tested, and the Activity was “++ (activity >200% of a corrector (VX-809 (3 uM)) with compound at 1 uM)”.
In the case of `[2H]C([2H])([2H])[Si](c1cc([Si](C([2H])([2H])[2H])(C([2H])([2H])[2H])C([2H])([2H])[2H])c(NC(=O)c2c[nH]c3ccccc3c2=O)cc1O)(C([2H])([2H])[2H])C([2H])([2H])[2H]` [Compound 13, N-(5-Hydroxy-2,4-bis(tris(methyl-d3)silyl)phenyl)-4-oxo-1,4-dihydroquinoline-3-carboxamide], the Activity was “++ (activity >200% of a corrector (VX-809 (3 uM)) with compound at 1 uM)”.
